Experimental findings from US8119636B2, “Pyrrolopyrazine kinase inhibitors” (Roche Palo Alto LLC, priority 2008, dated 2012) are described below.

SMILES strings stand for the structures.

Usually melting point stands for the temperature of the solid-liquid transition. Turning to `CC(C)CC(=O)c1c[nH]c2ncc(Br)nc12` [Compound I-1, 1-(2-Bromo-5H-pyrrolo[2,3-b]pyrazin-7-yl)-3-methyl-butan-1-one], the melting point is 183 to 187.5 °C. On to `CC(C)NC(=O)c1c[nH]c2ncc(Cl)nc12` [Compound I-3, 2-Chloro-5H-pyrrolo[2,3-b]pyrazine-7-carboxylic acid isopropylamide], for which the melting point fell in the range of 278 to 279 °C. Compound `CC(C)(C)C(=O)c1c[nH]c2ncc(Cl)nc12` [Compound I-6, 1-(2-Chloro-5H-pyrrolo[2,3-b]pyrazin-7-yl)-2,2-dimethyl-propan-1-one] displayed a melting point of 209 to 210 °C. With `CC1(C(=O)c2c[nH]c3ncc(Br)nc23)CCCCC1` [Compound I-7, (2-Bromo-5H-pyrrolo[2,3-b]pyrazin-7-yl)-(1-methyl-cyclohexyl)-methanone] the figure was 198 to 199 °C; with `CC(C)(C)C(=O)c1c[nH]c2ncc(Br)nc12` [Compound I-8, 1-(2-Bromo-5H-pyrrolo[2,3-b]pyrazin-7-yl)-2,2-dimethyl-propan-1-one], 213 to 214 °C; with `C#Cc1cnc2[nH]cc(C(=O)C(C)(C)C)c2n1` [Compound I-11, 1-(2-Ethynyl-5H-pyrrolo[2,3-b]pyrazin-7-yl)-2,2-dimethyl-propan-1-one], 229 to 231 °C. As for `CCc1cnc2[nH]cc(C(=O)C(C)(C)C)c2n1` [Compound I-12, 1-(2-Ethyl-5H-pyrrolo[2,3-b]pyrazin-7-yl)-2,2-dimethyl-propan-1-one], the figure is 215 to 216 °C.

The compound `CC(C)C(O)c1cnc2[nH]cc(C(=O)C(C)(C)C)c2n1` (stereo not shown) [Compound I-15, 1-[2-(1-Hydroxy-2-methyl-propyl)-5H-pyrrolo[2,3-b]pyrazin-7-yl]-2,2-dimethyl-propan-1-one] gave a melting point of 148 to 150 °C. As for `Cc1ccccc1C(O)c1cnc2[nH]cc(C(=O)C(C)(C)C)c2n1` (stereo not shown) [Compound I-16, 1-[2-(Hydroxy-o-tolyl-methyl)-5H-pyrrolo[2,3-b]pyrazin-7-yl]-2,2-dimethyl-propan-1-one], the figure is 181 to 183 °C; as for `CC(C)(C)C(=O)c1c[nH]c2ncc(C(O)c3ccccc3)nc12` (stereo not shown) [Compound I-17, 1-[2-(Hydroxy-phenyl-methyl)-5H-pyrrolo[2,3-b]pyrazin-7-yl]-2,2-dimethyl-propan-1-one], 168 to 170 °C. Turning to `CC(C)(C)C(=O)c1c[nH]c2ncc(C(O)c3ccncc3)nc12` (stereo not shown) [Compound I-18, 1-[2-(Hydroxy-pyridin-4-yl-methyl)-5H-pyrrolo[2,3-b]pyrazin-7-yl]-2,2-dimethyl-propan-1-one], the melting point was in the range of 189.1 to 194.9 °C.

`CC(C)(C)C(=O)c1c[nH]c2ncc(C(O)c3cccnc3)nc12` (stereo not shown) [Compound I-19, 1-[2-(Hydroxy-pyridin-3-yl-methyl)-5H-pyrrolo[2,3-b]pyrazin-7-yl]-2,2-dimethyl-propan-1-one] registered a melting point of 192 to 194 °C. For `CC1(C(=O)c2c[nH]c3ncc(Br)nc23)CCCCCC1` [Compound I-24, (2-Bromo-5H-pyrrolo[2,3-b]pyrazin-7-yl)-(1-methyl-cycloheptyl)-methanone], the melting point was 197.7 to 198.2 °C.
